In patent US20020148006A1, “Transgenic plants with modified sterol compositions” (Asgrow Seed Company, L.L.C., priority 1996, published 2002):
Read-outs that look alike come from different tables or passages of the source.

Columns and labels:
[1] = system: (S)-adenosyl-L-methionine: Δ^24-sterol methyl transferase (SMT); assay: Effect of substrate and transition state analog inhibitors on soluble SMT enzyme from 4-day seedlings; type: biochemical, Zea mays (corn); conditions: for Ki: soluble SMT, 4-day seedlings, NA = no inhibition; for Effect on the second methyl transfer / Type of inhibition / kinetic pattern / Effect on the first methyl transfer: soluble corn SMT
[2] = target: T1, yeast SMT enzyme (Saccharomyces cerevisiae, UniProt P25087); assay: Substrate preference / binding of yeast SMT (ERG6 product); type: biochemical
T1 construct: made in house; host or cells: E. coli, pET23a(+)
T1 sequence (P25087 1-383): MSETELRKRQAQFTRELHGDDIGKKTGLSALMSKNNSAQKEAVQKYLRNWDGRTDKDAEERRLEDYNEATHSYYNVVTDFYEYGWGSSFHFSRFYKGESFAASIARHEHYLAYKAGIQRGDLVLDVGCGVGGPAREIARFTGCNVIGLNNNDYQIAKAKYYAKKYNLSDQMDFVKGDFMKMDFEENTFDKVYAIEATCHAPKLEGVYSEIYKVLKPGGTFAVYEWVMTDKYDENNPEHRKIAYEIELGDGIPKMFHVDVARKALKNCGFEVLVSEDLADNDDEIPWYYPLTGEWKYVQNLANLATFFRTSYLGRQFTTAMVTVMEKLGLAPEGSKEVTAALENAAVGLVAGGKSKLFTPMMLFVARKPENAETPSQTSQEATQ
Text: The cloned ERG6 gene was expressed in E. coli (Venkatramesh et al., 1996).

[3] = system: (S)-adenosyl-L-methionine: Δ^24-sterol methyl transferase (SMT); assay: Sterol specificity (substrate methylation) of SMT enzyme from 4-day corn seedlings; type: biochemical, Zea mays (corn); conditions: for % Activity, relative to cycloartenol methylation: soluble SMT; for Enzyme Activity: soluble SMT from corn seedlings, BG = background
Description: The sterol specificity of the microsome-bound and soluble SMT enzyme from 4-day corn seedlings was determined in order to elucidate the enzymatic basis for the plant sterols identified in Example 1.

[4] = system: 3-hydroxy-3-methylglutaryl-coenzyme A reductase (HMGR); assay: Microsomal HMGR activity during seedling development; type: biochemical, corn; parameters: dose or concentration left out as unconfirmed
[5] = target: T2, Arabidopsis SMT (Arabidopsis thaliana, UniProt Q39227); assay: Sterol transformation by recombinant Arabidopsis SMT expressed in E. coli; type: biochemical; conditions: recombinant fusion protein
T2 construct: The full-length ORF containing a Nde 1 site at the start; His-tag; made in house; host or cells: E. coli, pET23a(+)
T2 sequence (Q39227 1-361): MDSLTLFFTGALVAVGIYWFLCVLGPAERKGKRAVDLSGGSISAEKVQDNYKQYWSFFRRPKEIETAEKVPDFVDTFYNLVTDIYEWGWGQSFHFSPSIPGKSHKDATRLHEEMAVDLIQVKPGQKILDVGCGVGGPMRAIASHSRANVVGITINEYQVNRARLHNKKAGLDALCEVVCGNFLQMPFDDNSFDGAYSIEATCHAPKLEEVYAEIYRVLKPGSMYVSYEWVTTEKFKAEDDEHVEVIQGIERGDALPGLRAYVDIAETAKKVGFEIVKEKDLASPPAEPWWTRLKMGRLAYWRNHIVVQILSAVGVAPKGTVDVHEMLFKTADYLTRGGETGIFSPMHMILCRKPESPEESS
Text: The SMT gene from Arabidopsis was cloned and sequenced (FIG. 6; SEQ ID NO:3). This gene containing a His-tag was overexpressed in E. coli (Tong et al., 1997). Arabidopsis SMT was partially purified and characterized in stereochemical detail.
The Arabidopsis SMT gene was amplified by PCR from a cDNA library. The primers used were designed from the full-length cDNA sequence retrieved from the GeneBank (Accession number X89867). The amplified product was the full-length Arabidopsis SMT gene which was sub-cloned into a T/A cloning vector and sequenced. From the sequence data the ORF was identified. A Nde I site was created at the ATG start codon through PCR mediated site-directed mutagenesis. The full-length ORF containing a Nde 1 site at the start and a BamH I site at the stop was cloned into the pET23a(+) vector just as the ERG6 gene was in Example 4. […] In the case of cycloartenol only one product was formed, which is 24(28)-methylene cycloartanol, i.e., SMTI in FIG. 4. Since a single gene product was able to metabolize both sterol substrates it further confirms the enzymological data in Example 3.

[6] = system: yeast sterol auxotroph, GL-7; assay: Growth support of yeast sterol auxotroph GL-7 cultured with test sterols; type: cell-based; conditions: sterol added to culture medium
Description: The phytosterols identified in Example 1 were tested individually for their ability to support growth. In the absence of a plant sterol mutant for such studies the yeast sterol auxotroph, GL-7, was cultured in the presence of sterols identified according to Example 1, above (Li, 1996). This yeast mutant is used as a model system because it can take up sterols from the culture medium and incorporate the test sterol into the membrane lipid bilayer and proliferate. The amount of proliferation of the cells was measured in the presence and absence of hormonal levels of ergosterol, the major yeast sterol.

[7] = system: Heliothis zea; assay: Sterol utilization and metabolism by Heliothis zea reared on artificial diet with sterol supplement; conditions: for Utilization by H. zea / support of larval growth and development (words): test sterol as sole added dietary sterol; for Sterol composition (as % total sterol): ts: insect tissues, RP-HPLC and GC-MS
Description: Heliothis zea (corn earworm) was reared on an artificial diet treated with different sterol supplements to study the relation between sterol structure and utilization in insects. H. zea eggs were used to establish a disease-free stock colony.
The stock insects were reared using sterile procedures on a pinto bean-based diet. Moths were fed 10% sucrose. Cultures were maintained at 27±1° C., at 40±10% relative humidity on a 14:10 light-dark photoperiod and an artificial diet was used to rear the insects on different sterol supplements. The experimental diet contained agar, which is known to contain trace contamination of cholesterol, otherwise the experimental diet was sterol-free.
Sterols were solubilized in acetone. Aliquots of the solutions were added to the sterol-free diet in a mortar, the material mixed thoroughly with the diet, and the organic solvent allowed to evaporate. Sterols were supplied to the medium at 200 ppm (equivalent to 1 mg of sterol per experimental vessel containing one insect).
By day 20, H. zea larva are in the final stage of larval development (sixth instar), after which the insects may pupate. A single neonate larva was placed in an experimental culture vial and allowed to grow for 20 days. The fresh weight, length and instar stage of 20-day larva were recorded.
In some treatments, the larvae were allowed to grow for another 4 days to determine whether they could pupate properly and develop into moth forms.
These fatty alcohols may comigrate with sterols during some forms of chromatography and interfere with sterol quantitation, particularly of cholesterol. Therefore, in order to confirm the identity and amount of cholesterol in the insect an aliquot of the NSF was injected into a HPLC column and the fraction corresponding to cholesterol was examined by GC-MS.

[8] = system: SMT; assay: Substrate preference of SMT in microsome preparations of P. wickerhamii; type: biochemical, Prototheca wickerhamii
Text: However, the preferred product is not 24(28)-methylene cycloartenol but cyclolaudenol (VII) which is a Δ^25(27)-24-alkyl sterol, a nonutilizable sterol.

[9] = system: serum and/or plasma total cholesterol and low density lipoprotein (LDL) cholesterol; conditions: comparison of phytosterol structures; cited from earlier work
[10] = read-out: Ki relative to the first methyl transfer
[11] = Table 11, sterol 200 ppm in diet
[12] = Table 11, sterol 200 ppm in diet, 20-day larvae, relative to growth on cholesterol normalized to 100%
[13] = substrates marked (C1), first methyl transfer
[14] = read-out: Ki relative to the second methyl transfer

In the case of 26,27-Cyclopropylidene cycloartenol, the Ki [1, 10] is reported as 25 µM, the “Effect on the second methyl transfer” value [1] is reported as “not affecting the second methyl transfer” and the “Type of inhibition / kinetic pattern” value [1] is reported as “potent competitive inhibitor”. The “Substrate preference / binding to yeast SMT (words)” value (“Substrate preference / binding” below) [2] was “failed to bind to the yeast SMT enzyme”.
For `C=C(CCC(C)C1CCC2(C)C3CCC4C(C)(C)C(O)CCC45CC35CCC12C)C(C)C` (stereo not shown) [24(28)-Methylene cycloartanol], the “% Activity, relative to cycloartenol methylation” value ([3]; (C2), second methyl transfer) was 0 (C2) %, the Ki [1, 10] was 20 µM and the “Effect on the second methyl transfer” value [1] was “failed to inhibit the second methyl transfer”. For the same compound, the “Effect on HMGR activity” value [4] was “neither sitosterol nor 24(28)-methylene cycloartanol at 100 mM affected HMGR activity”.
In the case of `C=C(CC[C@@H](C)[C@H]1CC[C@H]2C3=CCC4C(C)C(O)CC[C@]4(C)[C@H]3CC[C@]12C)C(C)C` (stereo partly shown) [24(28)-Methylenelophenol], the Vmax ([3]; second transmethylation) is reported as 1 pmol/min/mg protein, the “Enzyme Activity” value ([3]; substrates marked (C2), second methyl transfer) is reported as 3,800 dpm/min and the “% Activity, relative to cycloartenol methylation” value ([3]; (C2), second methyl transfer) is reported as 10 (C2) %. The “Substrate quality for corn SMT” value ([3]; soluble enzyme) was “preferred sterol substrate for the second methylation reaction”, the Km ([3]; sterol substrate of the second transmethylation, read-out: Km) was 11 µM and the “Transformation by recombinant Arabidopsis SMT” value [5] was “active in transforming both cycloartenol and 24(28)-methylene lophenol to their respective alkyl products”.
With `CC(CCC1NC1(C)C)[C@H]1CC[C@@]2(C)C3=C(CC[C@]12C)[C@]1(C)CC[C@H](O)C(C)(C)[C@@H]1CC3` (stereo partly drawn) [24-(R,S)-25-Epiminolanosterol, 24-(R,S)-25-epiminolanosterol] the “Type of inhibition / kinetic pattern” value [1] was “non-competitive type kinetic pattern”.
In the case of `CC(C)C(C)CCC(C)C1CCC2C3CC=C4CC(O)CCC4(C)C3CCC12C` (stereo not shown) [Campesterol, campesterol], the “Effect on the first methyl transfer” value [1] is reported as “failed to inhibit either the first or second methylation reaction” and the “Effect on the second methyl transfer” value [1] is reported as “failed to inhibit either the first or second methylation reaction”.
In the case of `CC(C)CCC[C@@H](C)[C@H]1CC[C@H]2[C@@H]3CC=C4C[C@@H](O)CC[C@]4(C)[C@H]3CC[C@]12C` [Cholesterol], the “Effect on growth of GL-7” value [6] is reported as “without affecting the rate of growth of the cells”, the “Dietary concentration that enhanced the rate of development of larvae” value ([7]; % of diet) is reported as ≥ 0.015% and the “Minimal dietary concentration necessary for larvae to grow and pupate” value ([7]; % of the experimental diet) is reported as 0.01%. The “Instar reached by day 20” value [7, 11] was 6, the Growth response [7, 12] was 100% and the Growth response ([7]; Table 12, cholesterol / 24,25-dihydrolanosterol mixtures in diet) was 100. The “Instar reached by day 20” value ([7]; Table 12, sterol mixtures) was 6, the “Sterol composition (as % total sterol): cholesterol” value ([7]; Table 12, sterol recovered from insect) was “(100%)” and the “Utilization by H. zea / support of larval growth and development (words)” value (“Utilization by H. zea / support” below) [7] was “supported larval growth to late-sixth instar”.
With `CC(C)=CCC[C@@H](C)[C@H]1CC[C@@]2(C)[C@@H]3CC[C@H]4C(C)(C)[C@@H](O)CC[C@@]45C[C@@]35CC[C@]12C` [Cycloartenol, cycloartenol] the Vmax ([3]; first transmethylation) was 4 pmol/min/mg protein, the “Substrate quality for corn SMT” value ([3]; microsome-bound enzyme system) was “preferred sterol acceptor” and the “Enzyme Activity” value [3, 13] was 37,515 dpm/min. The “% Activity, relative to cycloartenol methylation” value ([3]; (C1), first methyl transfer) was 100 (C1) %, the “Substrate quality for corn SMT” value ([3]; soluble enzyme) was “preferred substrate for the first methylation reaction” and the “Transformation by recombinant Arabidopsis SMT” value [5] was “active in transforming both cycloartenol and 24(28)-methylene lophenol to their respective alkyl products”. The “Substrate preference of P. wickerhamii SMT” value [8] was “preferred substrate”, the “Instar reached by day 20” value [7, 11] was 3 and the Growth response [7, 12] was 5%. The “Utilization by H. zea / support” value [7] was “inhibit insect growth” and the “Utilization by H. zea / support” value ([7]; listed as cycloartenol) was “could not be met satisfactorily”.
In the case of `CC(C)[C@@H](C)/C=C/[C@@H](C)[C@H]1CC[C@H]2C3=CC=C4C[C@@H](O)CC[C@]4(C)[C@H]3CC[C@]12C` [Ergosterol], the “Effect on growth of GL-7” value [6] is reported as “sparking growth”, the “Sterol composition (as % total sterol): ts” value ([7]; Table 11) is reported as 36% and the “Instar reached by day 20” value [7, 11] is reported as 3. It also gave a Growth response [7, 12] of 30%.
With `CCC(CCC(C)C1CCC2C3CC=C4CC(O)CCC4(C)C3CCC12C)C(C)C` (stereo not shown) [Sitosterol, sitosterol] the Ki, second methyl transfer [1] was 100 µM, the Ki [1, 14] was 100 µM and the “Effect on the first methyl transfer” value [1] was “without affecting the first methyl transfer”. For the same compound, the “Effect on HMGR activity” value [4] was “neither sitosterol nor 24(28)-methylene cycloartanol at 100 mM affected HMGR activity”, the “Effect on growth of GL-7” value [6] was “without affecting the rate of growth of the cells” and the “Sterol composition (as % total sterol): ts” value ([7]; Table 11) was 20%. The “Instar reached by day 20” value [7, 11] was 6, the Growth response [7, 12] was 100% and the “Utilization by H. zea / support” value [7] was “supported larval growth to late-sixth instar”.
In the case of `CC=C(CCC(C)C1CCC2C3=CCC4C(C)C(O)CCC4(C)C3CCC21C)C(C)C` (stereo not shown) [Z-24(28)-Ethylidene lophenol], the Ki [1, 14] is reported as 75 µM and the “Effect on the first methyl transfer” value [1] is reported as “not affecting the first methyl transfer”.
In the case of `CC(C)=CCC[C@@H](C)[C@H]1CC[C@H]2C3=C(CC[C@]12C)[C@@]1(C)CC[C@H](O)C[C@@H]1CC3` [Zymosterol], the “Enzyme Activity” value [3, 13] is reported as 5,252 dpm/min, the “% Activity, relative to cycloartenol methylation” value ([3]; (C1), first methyl transfer) is reported as 14 (C1) % and the “Substrate quality for corn SMT” value ([3]; soluble enzyme) is reported as “poor sterol substrate of the first methylation reaction”. The “Substrate preference / binding” value [2] was “preferred sterol substrate of yeast SMT enzyme” and the “Substrate preference / binding” value ([2]; listed as zymosterol) was “preferred substrate of the yeast SMT”.
In the case of `CC[C@H](CC[C@@H](C)[C@H]1CC[C@H]2[C@@H]3CC[C@H]4C[C@@H](O)CC[C@]4(C)[C@H]3CC[C@]12C)C(C)C` [sitostanol], the “Reduction of cholesterol levels” value [9] is given as “more efficient compared to unsaturated compounds such as sitosterol in reducing cholesterol levels”.
